The text below walks through data of ChEMBL document CHEMBL5528048, “Discovery of Novel Potent and Fast BTK PROTACs for the Treatment of Osteoclasts-Related Inflammatory Diseases” (J Med Chem, 2024).

Active and inactive are the calls of the source. No cut-off for these calls is given here. Where only a bound is given, the exact number is not on record here.

The target of series [1] is T1, Protein cereblon/Tyrosine-protein kinase BTK (Homo sapiens, UniProt Q06187+Q96SW2). The series is described as follows: PROTAC activity at BTK/CRBN in human MINO cells assessed as BTK protein degradation at 100 nM measured after 24 hrs by Western blotting analysis relative to control. Type of series: cell-based.
Target sequence in this assay (Q06187 2-659 limits assumed): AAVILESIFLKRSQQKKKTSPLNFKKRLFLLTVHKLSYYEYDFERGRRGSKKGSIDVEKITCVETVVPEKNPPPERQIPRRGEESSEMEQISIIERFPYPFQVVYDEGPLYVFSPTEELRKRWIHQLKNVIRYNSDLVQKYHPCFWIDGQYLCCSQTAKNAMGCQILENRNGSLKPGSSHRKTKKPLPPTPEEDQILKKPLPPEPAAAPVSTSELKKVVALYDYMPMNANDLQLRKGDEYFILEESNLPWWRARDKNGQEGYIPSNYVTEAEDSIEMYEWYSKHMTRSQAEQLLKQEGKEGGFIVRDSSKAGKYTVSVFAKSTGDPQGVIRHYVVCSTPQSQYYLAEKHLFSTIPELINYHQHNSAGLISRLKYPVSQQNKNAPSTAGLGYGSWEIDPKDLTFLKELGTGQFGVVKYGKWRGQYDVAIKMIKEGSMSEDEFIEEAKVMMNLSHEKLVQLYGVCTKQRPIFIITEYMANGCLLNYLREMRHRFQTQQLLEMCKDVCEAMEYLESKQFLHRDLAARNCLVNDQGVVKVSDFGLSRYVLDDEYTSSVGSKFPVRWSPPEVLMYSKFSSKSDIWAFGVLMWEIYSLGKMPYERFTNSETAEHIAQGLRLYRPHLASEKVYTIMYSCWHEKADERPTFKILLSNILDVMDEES
Target sequence in this assay (Q96SW2 whole entry partner): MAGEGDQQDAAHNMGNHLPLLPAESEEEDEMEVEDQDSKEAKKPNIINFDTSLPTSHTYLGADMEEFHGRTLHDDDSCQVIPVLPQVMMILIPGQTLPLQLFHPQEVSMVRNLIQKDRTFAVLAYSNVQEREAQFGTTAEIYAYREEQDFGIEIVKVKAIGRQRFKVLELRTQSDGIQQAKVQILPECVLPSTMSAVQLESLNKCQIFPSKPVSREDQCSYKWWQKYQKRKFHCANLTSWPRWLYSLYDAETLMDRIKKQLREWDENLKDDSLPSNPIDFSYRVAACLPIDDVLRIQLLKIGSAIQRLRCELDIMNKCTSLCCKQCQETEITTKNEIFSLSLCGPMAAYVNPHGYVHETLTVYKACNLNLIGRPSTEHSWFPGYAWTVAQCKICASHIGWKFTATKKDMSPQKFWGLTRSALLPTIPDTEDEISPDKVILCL
A short description of series [2]: AUC (0 to infinity) in Sprague-Dawley rat at 4 mg/kg, ip measured upto 48 hrs. The format is ADME, organism-based. The note with it: in vivo.
A short description of series [3]: Cmax in Sprague-Dawley rat at 4 mg/kg, ip measured upto 48 hrs. The note with it: in vivo. Type of series: ADME, organism-based.
A short description of series [4]: AUC (0 to t) in Sprague-Dawley rat at 4 mg/kg, ip measured upto 48 hrs. Type of series: ADME, organism-based. As to conditions: in vivo.
For series [5], the target named is T1, Protein cereblon/Tyrosine-protein kinase BTK. The series is described as follows: PROTAC activity at BTK/CRBN in human MINO cells assessed as BTK protein degradation at 20 nM measured after 24 hrs by Western blotting analysis relative to control. The format is cell-based. (In general: A western blot detects proteins with antibodies after separation by electrophoresis.)
Target sequence in this assay (Q06187 2-659 limits assumed): as the sequence (Q06187 2-659 limits assumed) above
Target sequence in this assay (Q96SW2 whole entry partner): as the sequence (Q96SW2 whole entry partner) above

The target is the same in series [6]. The series is described as follows: PROTAC activity at BTK/CRBN in human MINO cells assessed as BTK protein degradation measured for 4 hrs by Western blotting analysis. The format is cell-based.
Target sequence in this assay (Q06187 whole entry): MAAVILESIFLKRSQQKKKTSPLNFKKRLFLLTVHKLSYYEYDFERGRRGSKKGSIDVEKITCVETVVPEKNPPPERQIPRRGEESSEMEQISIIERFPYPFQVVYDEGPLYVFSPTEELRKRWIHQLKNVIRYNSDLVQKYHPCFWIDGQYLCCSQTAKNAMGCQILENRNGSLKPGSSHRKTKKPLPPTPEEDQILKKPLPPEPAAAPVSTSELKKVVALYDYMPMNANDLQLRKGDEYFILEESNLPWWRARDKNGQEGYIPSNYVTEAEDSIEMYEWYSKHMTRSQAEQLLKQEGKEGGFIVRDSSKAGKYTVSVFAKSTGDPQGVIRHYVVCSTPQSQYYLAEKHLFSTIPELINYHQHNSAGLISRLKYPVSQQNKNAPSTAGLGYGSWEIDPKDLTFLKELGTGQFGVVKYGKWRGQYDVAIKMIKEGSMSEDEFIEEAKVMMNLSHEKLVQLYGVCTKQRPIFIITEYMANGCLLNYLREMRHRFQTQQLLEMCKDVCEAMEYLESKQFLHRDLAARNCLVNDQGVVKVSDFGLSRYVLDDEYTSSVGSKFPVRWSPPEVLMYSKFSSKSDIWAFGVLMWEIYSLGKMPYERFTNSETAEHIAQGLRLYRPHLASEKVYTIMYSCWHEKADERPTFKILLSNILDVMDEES
Target sequence in this assay (Q96SW2 whole entry): as the sequence (Q96SW2 whole entry partner) above
The target is the same in series [7]. The series is described as follows: PROTAC activity at BTK/CRBN in human MINO cells assessed as BTK protein degradation half life at 20 nM by Western blotting analysis. The format is cell-based.
Target sequence in this assay (Q06187 2-659 limits assumed): as the sequence (Q06187 2-659 limits assumed) above
Target sequence in this assay (Q96SW2 whole entry partner): as the sequence (Q96SW2 whole entry partner) above
The target is the same in series [8]. The series is described as follows: PROTAC activity at BTK/CRBN in human MINO cells assessed as BTK protein degradation by measuring onset time activity at 20 nM by Western blotting analysis. Type of series: cell-based.
Target sequence in this assay (Q06187 2-659 limits assumed): as the sequence (Q06187 2-659 limits assumed) above
Target sequence in this assay (Q96SW2 whole entry partner): as the sequence (Q96SW2 whole entry partner) above
The target is the same in series [9]. The series can be described thus: PROTAC activity at BTK/CRBN in human MINO cells assessed as BTK protein degradation at 20 nM measured after 4 to 8 hrs by Western blotting analysis. The format is cell-based. The note with it: time 4-8 hrs.
Target sequence in this assay (Q06187 2-659 limits assumed): as the sequence (Q06187 2-659 limits assumed) above
Target sequence in this assay (Q96SW2 whole entry partner): as the sequence (Q96SW2 whole entry partner) above
Series [10] shares this target. The series can be described thus: PROTAC activity at BTK/CRBN in human MINO cells assessed as BTK protein degradation at 20 nM by Western blotting analysis. As to conditions: time lower 2.0 hrs, time upper […], TDE = time-dependent effect. The format is cell-based.
Target sequence in this assay (Q06187 2-659 limits assumed): as the sequence (Q06187 2-659 limits assumed) above
Target sequence in this assay (Q96SW2 whole entry partner): as the sequence (Q96SW2 whole entry partner) above

On to `Cc1cc(-c2nc(Nc3cnn(C4CCN(CC5CCN(c6ncc(-c7ccc(=O)[nH]n7)cc6F)CC5)CC4)c3)ncc2F)ccc1CNC(=O)c1cn(C(C)(C)C)nn1`, for which the Activity in series [1] was 48%.
Consider `C=CC(=O)N1CCC[C@@H](n2nc(-c3ccc(Oc4ccccc4)cc3)c3c(N)ncnc32)C1` [IBRUTINIB], for which the AUC(0-inf) (usually total exposure, with the tail of the curve extrapolated) in series [2] came to 11700 ng·h/mL. The highest level in [3] (Cmax) was 3460 ng/mL. Further, the exposure AUC(0-t) (in general, the area under the concentration-time curve up to a stated or last time point) at 48 h in [4] came out at 11200 ng·h/mL.
For the molecule `O=C1CCC(N2C(=O)c3ccc(N4CCC(CN5CCC(C#Cc6ccc(Nc7ncc(F)c(N8CCC(CO)CC8)n7)cn6)CC5)CC4)cc3C2=O)C(=O)N1` (stereo not given), in series [1], the Activity amounted to 35%.
Take `Cc1cc(-c2nc(Nc3cnn(C4CCN(C(=O)CCC(=O)N[C@@H](C)C(=O)N[C@H]5CCC(=O)NC5=O)CC4)c3)ncc2F)ccc1CNC(=O)c1cn(C(C)(C)C)nn1`: in [1], the Activity was 32%.
On to `CN1CCN([C@@H]2CCCN(c3nc(Nc4ccc(N5CCN(CC6CCN(c7ccc8c(c7)C(=O)N(C7CCC(=O)NC7=O)C8=O)CC6)CC5)cc4)ncc3F)C2)C1=O` (stereo not given in full), for which the Activity in [1] stood at 30%.
`O=C1CCC(N2C(=O)c3ccc(N4CCC(CN5CCN(c6ccc(Nc7ncc(F)c(N8CCC[C@@H](N9CCOC9=O)C8)n7)cc6)CC5)CC4)cc3C2=O)C(=O)N1` (stereo not given in full): the Activity in series [1] was determined as 39%.
As for `Cc1cc(-c2nc(Nc3ccn(C4CN(CC5CCN(c6ccc7c(c6)C(=O)N(C6CCC(=O)NC6=O)C7=O)CC5)C4)n3)ncc2F)ccc1CNC(=O)c1cn(C2CC2)nn1` (stereo not given), the Activity was found to be 92% in series [5] and 97% in series [1].
As for `Cc1cc(-c2nc(Nc3ccn(C4CCN(CC5CCN(c6ccc7c(c6)C(=O)N(C6CCC(=O)NC6=O)C7=O)CC5)CC4)n3)ncc2F)ccc1CNC(=O)c1nc(C(C)(C)C)no1` (stereo not given), the Activity in [5] and in series [1] was 99% each time.
Take `C=CC(=O)Nc1cccc(Nc2nc(Nc3ccc(N4CCN(C5CN(c6ccc7c(c6)C(=O)N(C6CCC(=O)NC6=O)C7=O)C5)CC4)cc3)ncc2F)c1` (stereo not given): the Activity in [1] is less than 10%.
Turning to `Cc1cc(-c2nc(Nc3ccn(C4CCN(CC5CCN(c6ccc7c(c6)C(=O)N(C6CCC(=O)NC6=O)C7=O)CC5)CC4)n3)ncc2F)ccc1CNC(=O)c1noc(C2CC2)n1` (stereo not given), the Activity in [5] turned out to be 0%; in series [1], 63%.
For `NC(=O)c1ncc(N2CCCCC2)nc1Nc1ccc(C2CCN(C[C@@H]3CCN(c4ccc5c(c4)C(=O)N(C4CCC(=O)NC4=O)C5=O)C3)CC2)cc1` (stereo not given in full), the results for the Activity in series [5] and in series [1] were 96% and 99%, respectively. The DC50 (commonly the concentration at which degradation of the target reaches its halfway point) in series [6] was found to be 4.86 nM. The T1/2 in series [7] amounted to 1.25 h. For the same molecule, the TIME in [8] was less than 1 h.
Take `O=C1CCC(N2C(=O)c3ccc(N4CC(CN5CCN(c6ccc(Nc7ncc(F)c(N8CCC(CO)CC8)n7)cc6)CC5)C4)cc3C2=O)C(=O)N1` (stereo not given): in [1], the Activity was less than 10%.
For the molecule `Cc1cc(-c2nc(Nc3cnn(C4CCN(CC5CCN(c6ccc7c(c6)C(=O)N(C6CCC(=O)NC6=O)C7=O)CC5)CC4)c3)ncc2F)ccc1CNC(=O)N1CC(OC(C)C)C1` (stereo not given), the figures for the Activity in series [5] and in series [1] were 80% and 95%, respectively.
Regarding `O=C1CCC(N2C(=O)c3ccc(N4CCC(CN5CCN(c6ccc(Nc7ncc(F)c(N8CCC(CO)CC8)n7)cc6)CC5)CC4)cc3C2=O)C(=O)N1` (stereo not given), the Activity in [1] worked out at 25%.
Take `O=C1CCC(N2C(=O)c3ccc(N4CC(CN5CCN(c6ccc(Nc7ncc(F)c(N8CCC[C@@H](N9CCOC9=O)C8)n7)cc6)CC5)C4)cc3C2=O)C(=O)N1` (stereo not given in full): in series [1], the Activity was less than 10%.
On the same count and under the same terms, the result for `O=C1CCC(N2C(=O)c3ccc(N4CCC(N5CCN(c6ccc(Nc7ncc(F)c(N8CCC(CO)CC8)n7)cc6)CC5)CC4)cc3C2=O)C(=O)N1` (stereo not given) reads less than 10%.
As to `Cc1cc(-c2nc(Nc3cnn(C4CCN(CC5CCN(c6ccc7c(c6)C(=O)N(C6CCC(=O)NC6=O)C7=O)CC5)CC4)c3)ncc2F)ccc1CNC(=O)c1ccc(C(C)(C)C)cc1` (stereo not given), the results for the Activity in series [5] and in [1] were 0% and 49%, respectively.
In the case of `O=C(/C=C/C(F)(F)F)Nc1cccc(Nc2nc(Nc3ccc(N4CCN(C5CN(c6ccc7c(c6)C(=O)N(C6CCC(=O)NC6=O)C7=O)C5)CC4)cc3)ncc2F)c1` (stereo not given), in series [1], the Activity was 26%.
On the same count and under the same terms, next, `O=C1CCC(N2C(=O)c3ccc(N4CCC(CN5CCN(c6ccc(Nc7ncc(F)c(N8CCC(CO)CC8)n7)cn6)CC5)CC4)cc3C2=O)C(=O)N1` (stereo not given): 20%.
Turning to `Cc1cc(-c2nc(Nc3cnn(C4CN(CC5CCN(c6ccc7c(c6)C(=O)N(C6CCC(=O)NC6=O)C7=O)CC5)C4)c3)ncc2F)ccc1CNC(=O)c1ccc(C(C)(C)C)cc1` (stereo not given), the values for the Activity in series [5] and in [1] were 0% and 29%, respectively.
As to `O=C1CCC(N2C(=O)c3ccc(N4CC(CN5CCC(C#Cc6ccc(Nc7ncc(F)c(N8CCC(CO)CC8)n7)cn6)CC5)C4)cc3C2=O)C(=O)N1` (stereo not given), the Activity in series [1] amounted to 20%.
`Cc1cc(-c2nc(Nc3cnn(C4CN(CC5CCN(c6ccc7c(c6)C(=O)N(C6CCC(=O)NC6=O)C7=O)CC5)C4)c3)ncc2F)ccc1CNC(=O)c1cn(C(C)(C)C)nn1` (stereo not given): the Activity was 99% in series [5], 99% in series [1] and “Tde” in [10]. Moreover, in series [6], the DC50 worked out at 2.49 nM. For the same molecule, the result in series [9] was Active. Also, the T1/2 in [7] was 0.71 h. In [8], the TIME is less than 0.5 h.
`C=CC(=O)Nc1cccc(Nc2nc(Nc3ccc(N4CCN(CC5CCN(c6ccc7c(c6)C(=O)N(C6CCC(=O)NC6=O)C7=O)CC5)CC4)cc3)ncc2F)c1` (stereo not given): the Activity in series [1] is 28%.
For the molecule `Cc1cc(-c2nc(Nc3ccn(C4CCN(CC5CCN(c6ccc7c(c6)C(=O)N(C6CCC(=O)NC6=O)C7=O)CC5)CC4)n3)ncc2F)ccc1CNC(=O)c1cn(C2CC2)nn1` (stereo not given), the results for the Activity in series [5], in series [1] and in series [10] were 99%, 21% and “Tde”, respectively.
`Cc1cc(-c2nc(Nc3cnn(C4CCN(CC5CCN(c6ccc(C7CCC(=O)NC7=O)cc6F)CC5)CC4)c3)ncc2F)ccc1CNC(=O)c1cn(C(C)(C)C)nn1` (stereo not given): in series [1], the Activity is 57%.
For `Cc1cc(-c2nc(Nc3ccn(C4CN(CC5CCN(c6ccc7c(c6)C(=O)N(C6CCC(=O)NC6=O)C7=O)CC5)C4)n3)ncc2F)ccc1CNC(=O)c1cnc(C(C)(C)C)s1` (stereo not given), the figures for the Activity in series [5] and in [1] were 75% and 95%, respectively.
With `Cc1cc(-c2nc(Nc3ccn(C4CCN(CC5CCN(c6ccc7c(c6)C(=O)N(C6CCC(=O)NC6=O)C7=O)CC5)CC4)n3)ncc2F)ccc1CNC(=O)c1cnc(C(C)(C)C)s1` (stereo not given), the Activity is 0% in series [5] and 16% in series [1].
On to `Cn1cc(Nc2nc(Nc3ccc(N4CCN(CC5CN(c6ccc7c(c6)C(=O)N(C6CCC(=O)NC6=O)C7=O)C5)CC4)cc3)ncc2F)cn1` (stereo not given), for which, in series [1], the Activity was determined as 11%.
Still for that read-out and setting: the result for `CC#CC(=O)Nc1cccc(Nc2nc(Nc3ccc(N4CCN(C5CN(c6ccc7c(c6)C(=O)N(C6CCC(=O)NC6=O)C7=O)C5)CC4)cc3)ncc2F)c1` (stereo not given) reads 70%.
Turning to `Cc1cc(-c2nc(Nc3ccn(C4CN(CC5CCN(c6ccc7c(c6)C(=O)N(C6CCC(=O)NC6=O)C7=O)CC5)C4)n3)ncc2F)ccc1CNC(=O)c1nc(C(C)(C)C)no1` (stereo not given), the Activity in series [5] is 96%; in series [1] it was 99%.
For `O=C1CCC(N2C(=O)c3ccc(N4CC(CN5CCN(c6ccc(Nc7ncc(F)c(N8CCC(CO)CC8)n7)cn6)CC5)C4)cc3C2=O)C(=O)N1` (stereo not given), the Activity in series [1] is less than 10%.
Same read-out and setting: next, `CN1CCN([C@@H]2CCCN(c3nc(Nc4ccc(N5CCN(CC6CN(c7ccc8c(c7)C(=O)N(C7CCC(=O)NC7=O)C8=O)C6)CC5)cc4)ncc3F)C2)C1=O` (stereo not given in full): less than 10%.
For `C#CC(=O)Nc1cccc(Nc2nc(Nc3ccc(N4CCN(C5CN(c6ccc7c(c6)C(=O)N(C6CCC(=O)NC6=O)C7=O)C5)CC4)cc3)ncc2F)c1` (stereo not given), the Activity in [1] came out at 54%.
Take `Cc1cc(-c2nc(Nc3ccn(C4CN(CC5CCN(c6ccc7c(c6)C(=O)N(C6CCC(=O)NC6=O)C7=O)CC5)C4)n3)ncc2F)ccc1CNC(=O)c1noc(C(C)(C)C)n1` (stereo not given): the figures for the Activity in series [5] and in series [1] were 78% and 99%, respectively.
In the case of `O=C1CCC(N2C(=O)c3ccc(N4CC(CN5CCN(c6ccc(Nc7ncc(F)c(-n8cccn8)n7)cc6)CC5)C4)cc3C2=O)C(=O)N1` (stereo not given), the Activity in series [1] is less than 10%.
Regarding `Cc1cc(-c2nc(Nc3ccn(C4CCN(CC5CCN(c6ccc7c(c6)C(=O)N(C6CCC(=O)NC6=O)C7=O)CC5)CC4)n3)ncc2F)ccc1CNC(=O)c1noc(C(C)(C)C)n1` (stereo not given), the Activity in series [5] was 98%; in [1], 99%; in series [10] it was “Tde”. The 50% degradation concentration (DC50) in series [6] is 10.3 nM. The outcome in [9] was Active. For the same molecule, the T1/2 in series [7] was 1.1 h.
